In US20060286167A1, “Compositions and methods for the treatment of neurodegenerative diseases” (priority 2005, published 2006) one finds SNR data, which are given here for 31 compounds.

Where a name gives a salt, the structure may show the parent alone.

In one assay the test system is SMN protein in SMA patient fibroblasts (GM03813). Nature of the assay: SMN cytoblot assay (SMN protein levels in SMA patient fibroblasts). It is filed as cell-based, human.
Conditions: not given
An excerpt:
One method for monitoring SMN protein levels in cells is through use of a cytoblot assay, in which cells are fixed and probed with an antibody against a target protein of interest. We have used a cytoblot assay to determine the concentration of SMN protein in SMA patient fibroblasts, and have identified small molecules that increase SMN protein concentration.
Using the cytoblot assay, we can clearly distinguish SMN protein levels in patient (GM03813) versus carrier fibroblast cells (GM03814), as shown in the FIGS. 1A and 1B.
• 1. Plate 50 μl per well of 300,000 cells/ml (15,000 cells per well) into Nunc white 384-well opaque-bottomed plates. • 2. Incubate plates at 37° C., 5% CO2 overnight. Day 2 • 1. Aspirate media from wells using Tecan plate washer. • 2. Fix cells by adding 20 μl/well of cold methanol (kept in −20° C. freezer). • 3. Incubate plates in 4° C. refrigerator for 10 minutes. • 4. Aspirate methanol using Tecan plate washer. • 5. Add 50 μl/well of primary Ab solution, (BD anti-SMN Ab diluted to 125 ng/ml in 10% fetal goat serum PBST), using multi-drop. • 6. Seal plates and incubate overnight at room temperature. Day 3 • 1. After 16-20 hrs incubation, wash plates with PBST 2× using Tecan plate washer. • 2. Add 50 μl of secondary Ab solution, (Santa Cruz goat anti-Mouse-HRP diluted to 67 ng/ml in 10% fetal goat serum PBST). • 3. Seal plates and incubate 2 hrs at room temperature. • 4. Wash plates with PBST 2× using Tecan plate washer. • 5. Add 50 μl/well 10% fetal goat serum PBST. • 6. Incubate in 4° C. refrigerator for 10 minutes. • 7. Aspirate plates using plate washer and add ECL luminescence solution, 20 μl/well. • 8. Measure luminescence on plate reader. Automated Scoring
We scored each compound based on the maximum signal-to-noise ratio (SNR) found among its dose curves. These scores are based on edge-corrected SMN data, using only plates that passed quality control. The untreated level on each plate was found by taking the median of the untreated wells, and for each treated well we calculated a log(T/U) ratio. Each curve was generated in triplicate on each plate, so each point on a compound's dose curve was obtained by determining the median for the replicate points. Each ratio thus has an error estimate from the scatter between the triplicate data points (1.5 times the median absolute deviation from the median). For each dose curve, we calculated the SNR for each data point log(T/U)/error, and chose the maximum point as our indicator of SMN induction activity. Since this is a signal-to-noise score, scores much greater than one indicate significant activity, assuming normal statistics. We decided to use a cutoff signal-to-noise ratio of 6. This selection represents a considerable enrichment towards visually-selected compounds. We identified 100 out of 2000 compounds producing scores >6. This included 13 of the 28 visual selections.
On to `C1CNCCN1.O=C(O)CC(O)(CC(=O)O)C(=O)O` [Piperazine Citrate], for which the SNR is listed as 6.68. The same measure, in the same setting: to `CS(=N)(=O)CC[C@H](N)C(=O)O` (stereo partly drawn) [L-Methionine Sulfoximine] belongs 7.29.

Still in this assay, the particulars now being: maximum signal-to-noise ratio log(T/U)/error among a compound's dose curves, SMN cytoblot; cutoff 6; column Scoring says Automated or Visual selection.
For `OC[C@@H](O)[C@@H](O[C@@H]1O[C@H](CO)[C@H](O)[C@H](O)[C@H]1O)[C@H](O)[C@@H](O)CO` [Lactitol], the SNR came out at 15.8. Still for that read-out and setting: to `CN1CCCN=C1/C=C/c1cccs1` [Pyrantel Pamoate] belongs 6.22. Still for that read-out and setting: to `C=CCOc1ccccc1OCC(O)CNC(C)C` (stereo not shown) [Oxprenolol Hydrochloride] belongs 6.52; to `NC[C@@H]1O[C@H](O[C@H]2[C@@H](O)[C@H](O[C@@H]3[C@@H](O)[C@H](N)C[C@H](N)[C@H]3O[C@H]3O[C@H](CO)[C@@H](O)[C@H](O)[C@H]3N)O[C@@H]2CO)[C@H](N)[C@@H](O)[C@@H]1O` [Paromomycin Sulfate], 11; to `C=CCSC[C@H](N)C(=O)O` [S-Allyl-L-Cysteine], 9.02. Still for that read-out and setting: to `CC(C)(C)OC(=O)N1CCCNCC1` [1-Boc-homopiperazine] belongs 6.66; to `CC(O)CN1CCN(CC(=O)[O-])CCN(CC(=O)[O-])CCN(CC(=O)[O-])CC1.[Gd+3]` (stereo not shown) [Gadoteridol], 6.54.

Turning to `C[C@H](CCC(=O)O)[C@H]1CC[C@H]2[C@@H]3[C@@H](O)C[C@@H]4C[C@H](O)CC[C@]4(C)[C@H]3CC[C@]12C` [Ursodiol], the SNR was found to be 9.2. On to `C=N[C@@H](C(=O)N[C@@H]1C(=O)N2[C@@H]1SC(C)(C)[C@@H]2C(=O)O)c1ccccc1` [Metampicillin], for which the SNR came to 9.95. On the same count and under the same terms, then `C/C=C/c1ccc(OC)cc1` [Trans-Anethole], with 8.35. For the compound `CC(=O)OC/C=C(\C)CCC=C(C)C` [Geranyl Acetate], the SNR is recorded as 6.71. As to Nonoxynol-9, the SNR was 7. The same measure, in the same setting: then `O=C1O[C@H]([C@@H](O)CO)C(O)=C1O` [Ascorbic Acid], with 6.29; and `CC1(C)S[C@@H]2[C@H](NC(=O)C(C(=O)O)c3ccccc3)C(=O)N2[C@H]1C(=O)O` (stereo partly shown) [Carbenicillin Disodium], with 7.99.

For the compound `CC(C)=CCCC(C)CC=O` (stereo not shown) [Citronellal], the SNR is 8.6. On to `O=c1[nH]c(=O)n(C2CCCO2)cc1F` (stereo not shown) [Tegafur], for which the SNR worked out at 6.74. Same read-out and setting: then `CN1CCN(C2=Nc3ccccc3Oc3ccc(Cl)cc32)CC1` [Loxapine Hydrochloride], with 10.1; and `C[N+]1(CCC(C(N)=O)(c2ccccc2)c2ccccc2)CCCCC1` [Fenpiverinium Bromide], with 7.49; and `CCCN1C[C@H](CSC)C[C@@H]2c3cccc4[nH]cc(c34)C[C@H]21` [Pergolide Mesylate], with 7.69. In the case of `COc1c2occc2c(OC)c2c(=O)cc(C)oc12` [Khellin], the SNR amounted to 6.73.

For the compound `CC(=O)OCC(=O)[C@@]12OC(C)(C)O[C@@H]1C[C@H]1[C@@H]3C[C@H](F)C4=CC(=O)C=C[C@]4(C)[C@@]3(F)[C@@H](O)C[C@@]12C` [Fluocinonide], the SNR is recorded as 7.01. On the same count and under the same terms, then `CC[C@@H](C(N)=O)N1CCCC1=O` [Levetiracetam], with 7.74; and `CC(C)NCC(O)COc1cccc2ccccc12` (stereo not shown) [Propranolol Hydrochloride], with 7.38; and Chymopapain, with 6.83. Still for that read-out and setting: then `CCCCCCCC/C=C\CCCCCCCC(=O)OC` [Methyl Oleate], with 7.89; and `C#CCN(C)Cc1ccccc1` [Pargyline], with 6.52.

With `C=CCCC(=O)O` [4-Pentenoic acid], the SNR is 10.8. The same measure, in the same setting: then `O=C(OCc1ccccc1)c1ccccc1` [Benzyl Benzoate], with 9.42. In the case of `CC(=O)Oc1cc(C(C)C)c(OCCN(C)C)cc1C` [Moxisylyte Hydrochloride], the SNR was 14.3.
